From patent US20100311714A1, “1H-IMIDAZO[4,5-c]QUINOLINONE COMPOUNDS” (priority 2009, published 2010)
Where two headings read alike, the source gives them in different places.

How the values were obtained:
[1] = system: S6 Ribosomal Protein phosphorylation Ser235/236 in TSC1 null mouse embryo fibroblast (MEF) cells; experiment: Reverse protein array, S6 Ribosomal Protein phosphorylation in TSC1 null MEF cells; assay type: cell-based; conditions: 1 h, TSC1-/- MEFs, 60 minutes
Method in brief: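 Phospho-S6 (Ser235/236) was quantified by reverse protein array of cell lysates with a phospho-specific primary antibody. […]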

[2] = system: PKB Ser473 phosphorylation in Rat1-myr-HA-p110 beta cells; experiment: Reverse protein array, PKB Ser473 phosphorylation in Rat1-myr-HA-p110 beta cells; assay type: cell-based; conditions: Rattus norvegicus, 0.5 h, 30 minutes compound incubation, read-out: p-PKB/IC50_beta

Row | IC50 [2] | Compound | IC50 ([1]; read-out: p-S6 IC50) | IC50 ([1]; read-out: p-S6)
1 | 40.3 nM | Cc1ccc(-n2c(=O)n(C)c3cnc4ccc(-c5cnc(N(C)C)nc5)cc4c32)c(C)n1 [Example 14.3, 8-(2-Dimethylamino-pyrimidin-5-yl)-1-(2,6-dimethyl-pyridin-3-yl)-3-methyl-1,3-dihydro-imidazo[4,5-c]quinolin-2-one] | 10 nM | –
2 | 16.3 nM | CNc1ncc(-c2ccc3ncc4c(c3c2)n(-c2ccc(NC(=O)COC)nc2C)c(=O)n4C)cn1 [Example 20.3, 2-Methoxy-N-{6-methyl-5-[3-methyl-8-(2-methylamino-pyrimidin-5-yl)-2-oxo-2,3-dihydro-imidazo[4,5-c]quinolin-1-yl]-pyridin-2-yl}-acetamide] | 44 nM | –
3 | 210 nM | CCOc1ccc(-c2ccc3ncc4c(c3c2)n(-c2ccc(NC(=O)COC)nc2C)c(=O)n4C)cn1 [Example 20.2, N-{5-[8-(6-Ethoxy-pyridin-3-yl)-3-methyl-2-oxo-2,3-dihydro-imidazo[4,5-c]quinolin-1-yl]-6-methyl-pyridin-2-yl}-2-methoxy-acetamide] | 131 nM | –
4 | < 4.57 nM | CNc1cc(-c2ccc3ncc4c(c3c2)n(-c2ccc(N(C)C)nc2C)c(=O)n4C)cnc1C [Example 19.2, 1-(6-Dimethylamino-2-methyl-pyridin-3-yl)-3-methyl-8-(6-methyl-5-methylamino-pyridin-3-yl)-1,3-dihydro-imidazo[4,5-c]quinolin-2-one] | 1.1 nM | –
5 | 30.7 nM | Cc1nc(N2CC(F)(F)C2)ccc1-n1c(=O)n(C)c2cnc3ccc(-c4cncc(C(C)(C)O)c4)cc3c21 [Example 24.2, 1-[6-(3,3-Difluoro-azetidin-1-yl)-2-methyl-pyridin-3-yl]-8-[5-(1-hydroxy-1-methyl-ethyl)-pyridin-3-yl]-3-methyl-1,3-dihydro-imidazo[4,5-c]quinolin-2-one] | 1 nM | –
6 | < 4.47 nM | CNc1cc(-c2ccc3ncc4c(c3c2)n(-c2ccc(C(F)(F)F)nc2C)c(=O)n4C)cnc1CO [Example 33.2, 8-(6-Hydroxymethyl-5-methylamino-pyridin-3-yl)-3-methyl-1-(2-methyl-6-trifluoromethyl-pyridin-3-yl)-1,3-dihydro-imidazo[4,5-c]quinolin-2-one] | 2 nM | –
7 | 15.1 nM | CNc1ccc(-c2ccc3ncc4c(c3c2)n(-c2ccc(N(C)CCOC)nc2C)c(=O)n4C)cn1 [Example 15.4, 1-{6-[(2-Methoxy-ethyl)-methyl-amino]-2-methyl-pyridin-3-yl}-3-methyl-8-(6-methylamino-pyridin-3-yl)-1,3-dihydro-imidazo[4,5-c]quinolin-2-one] | 3 nM | –
8 | 141 nM | CNc1ccc(-c2ccc3ncc4c(c3c2)n(-c2cnc(F)cc2C)c(=O)n4C)cn1 [Example 16.4, 1-(6-Fluoro-4-methyl-pyridin-3-yl)-3-methyl-8-(6-methylamino-pyridin-3-yl)-1,3-dihydro-imidazo[4,5-c]quinolin-2-one] | 5 nM | –
9 | 6.1 nM | COCCN(C)c1ccc(-n2c(=O)n(C)c3cnc4ccc(-c5cnc(N)c(C(F)(F)F)c5)cc4c32)c(C)n1 [Example 15.1, 8-(6-Amino-5-trifluoromethyl-pyridin-3-yl)-1-{6-[(2-methoxy-ethyl)-methyl-amino]-2-methyl-pyridin-3-yl}-3-methyl-1,3-dihydro-imidazo[4,5-c]quinolin-2-one] | 1 nM | –
10 | 24.4 nM | COCCN(C)c1ccc(-n2c(=O)n(C)c3cnc4ccc(-c5cnc6c(ccn6C)c5)cc4c32)c(C)n1 [Example 15.7, 1-{6-[(2-Methoxy-ethyl)-methyl-amino]-2-methyl-pyridin-3-yl}-3-methyl-8-(1-methyl-1H-pyrrolo[2,3-b]pyridin-5-yl)-1,3-dihydro-imidazo[4,5-c]quinolin-2-one] | 2 nM | –
11 | 202 nM | CCOc1ccc(-c2ccc3ncc4c(c3c2)n(-c2cncc(C)c2)c(=O)n4C)cn1 [Example 17.1, 8-(6-Ethoxy-pyridin-3-yl)-3-methyl-1-(5-methyl-pyridin-3-yl)-1,3-dihydro-imidazo[4,5-c]quinolin-2-one] | 29 nM | –
12 | 24.2 nM | CNc1ncc(-c2ccc3ncc4c(c3c2)n(-c2ccc(C)nc2C)c(=O)n4C)cn1 [Example 14.4, 1-(2,6-Dimethyl-pyridin-3-yl)-3-methyl-8-(2-methylamino-pyrimidin-5-yl)-1,3-dihydro-imidazo[4,5-c]quinolin-2-one] | 7 nM | –
13 | 77.6 nM | COCCOc1ccc(-n2c(=O)n(C)c3cnc4ccc(-c5cnc(COC)c(OC)c5)cc4c32)c(C)n1 [Example 22.3, 1-[6-(2-Methoxy-ethoxy)-2-methyl-pyridin-3-yl]-8-(5-methoxy-6-methoxymethyl-pyridin-3-yl)-3-methyl-1,3-dihydro-imidazo[4,5-c]quinolin-2-one] | 15 nM | –
14 | 20.8 nM | Cc1ccc(-n2c(=O)n(C)c3cnc4ccc(-c5cnc6c(ccn6C)c5)cc4c32)c(C)n1 [Example 14.7, 1-(2,6-Dimethyl-pyridin-3-yl)-3-methyl-8-(1-methyl-1H-pyrrolo[2,3-b]pyridin-5-yl)-1,3-dihydro-imidazo[4,5-c]quinolin-2-one] | 3 nM | –
15 | 61.4 nM | Cc1ccc(-n2c(=O)n(C)c3cnc4ccc(-c5cncc(NC(C)C)c5)cc4c32)c(C)n1 [Example 14.8, 1-(2,6-Dimethyl-pyridin-3-yl)-8-(5-isopropylamino-pyridin-3-yl)-3-methyl-1,3-dihydro-imidazo[4,5-c]quinolin-2-one] | 2 nM | –

The remaining lines, values behind:

Row | Compound | IC50 [2] | IC50 ([1]; read-out: p-S6 IC50) | IC50 ([1]; read-out: p-S6)
16 | CNc1cc(-c2ccc3ncc4c(c3c2)n(-c2ccc(F)nc2C)c(=O)n4C)cnc1CO [Example 7.11, 1-(6-Fluoro-2-methyl-pyridin-3-yl)-8-(6-hydroxymethyl-5-methylamino-pyridin-3-yl)-3-methyl-1,3-dihydro-imidazo[4,5-c]quinolin-2-one] | 15.8 nM | 7 nM | –
17 | CCOc1ccc(-c2ccc3ncc4c(c3c2)n(-c2cccnc2OC)c(=O)n4C)cn1 [Example 1.5, 8-(6-Ethoxy-pyridin-3-yl)-1-(2-methoxy-pyridin-3-yl)-3-methyl-1,3-dihydro-imidazo[4,5-c]quinolin-2-one] | 38.8 nM | – | 48.6 nM
18 | COc1nc(N2CCNCC2)ccc1-n1c(=O)n(C)c2cnc3ccc(-c4cnc(N(C)C)nc4)cc3c21 [Example 9.4, 8-(2-Dimethylamino-pyrimidin-5-yl)-1-(2-methoxy-6-piperazin-1-yl-pyridin-3-yl)-3-methyl-1,3-dihydro-imidazo[4,5-c]quinolin-2-one] | 19.6 nM | 6 nM | –
19 | CCOc1cc(-c2ccc3ncc4c(c3c2)n(-c2cccnc2C)c(=O)n4C)cnc1C [Example 2.22, 8-(5-Ethoxy-6-methyl-pyridin-3-yl)-3-methyl-1-(2-methyl-pyridin-3-yl)-1,3-dihydro-imidazo[4,5-c]quinolin-2-one] | 22.5 nM | 12 nM | –
20 | Cc1nc(F)ccc1-n1c(=O)n(C)c2cnc3ccc(-c4cnc(N)c(CO)c4)cc3c21 [Example 7.17, 8-(6-Amino-5-hydroxymethyl-pyridin-3-yl)-1-(6-fluoro-2-methyl-pyridin-3-yl)-3-methyl-1,3-dihydro-imidazo[4,5-c]quinolin-2-one] | 212 nM | 5 nM | –
21 | CCOc1ccc(-c2ccc3ncc4c(c3c2)n(-c2ccc(OCCOC)nc2C)c(=O)n4C)cn1 [Example 13.1, 8-(6-Ethoxy-pyridin-3-yl)-1-[6-(2-methoxy-ethoxy)-2-methyl-pyridin-3-yl]-3-methyl-1,3-dihydro-imidazo[4,5-c]quinolin-2-one] | 15.7 nM | 18 nM | –
22 | Cc1nc(F)ccc1-n1c(=O)n(C)c2cnc3ccc(-c4cncc(N)c4)cc3c21 [Example 7.16, 8-(5-Amino-pyridin-3-yl)-1-(6-fluoro-2-methyl-pyridin-3-yl)-3-methyl-1,3-dihydro-imidazo[4,5-c]quinolin-2-one] | 23.3 nM | 26 nM | –
23 | CCOc1ccc(-c2ccc3ncc4c(c3c2)n(-c2cccnc2C)c(=O)n4C)cn1 [Example 2.1, 8-(6-Ethoxy-pyridin-3-yl)-3-methyl-1-(2-methyl-pyridin-3-yl)-1,3-dihydro-imidazo[4,5-c]quinolin-2-one] | 18.3 nM | – | 19 nM
24 | CCNc1cc(-c2ccc3ncc4c(c3c2)n(-c2ccc(OCCOC)nc2C)c(=O)n4C)cnc1C [Example 13.4, 8-(5-Ethylamino-6-methyl-pyridin-3-yl)-1-[6-(2-methoxy-ethoxy)-2-methyl-pyridin-3-yl]-3-methyl-1,3-dihydro-imidazo[4,5-c]quinolin-2-one] | < 4.57 nM | 1 nM | –
25 | COc1ncccc1-n1c(=O)n(C)c2cnc3ccc(-c4cnc(N(C)C)nc4)cc3c21 [Example 1.9, 8-(2-Dimethylamino-pyrimidin-5-yl)-1-(2-methoxy-pyridin-3-yl)-3-methyl-1,3-dihydro-imidazo[4,5-c]quinolin-2-one] | 60.3 nM | – | 32.8 nM
26 | COCCOc1ccc(-n2c(=O)n(C)c3cnc4ccc(-c5cnc(N)c(C(F)(F)F)c5)cc4c32)c(C)n1 [Example 13.2, 8-(6-Amino-5-trifluoromethyl-pyridin-3-yl)-1-[6-(2-methoxy-ethoxy)-2-methyl-pyridin-3-yl]-3-methyl-1,3-dihydro-imidazo[4,5-c]quinolin-2-one] | 5.3 nM | 1 nM | –
27 | CNc1ccc(-c2ccc3ncc4c(c3c2)n(-c2cccnc2OC)c(=O)n4C)cn1 [Example 1.4, 1-(2-Methoxy-pyridin-3-yl)-3-methyl-8-(6-methylamino-pyridin-3-yl)-1,3-dihydro-imidazo[4,5-c]quinolin-2-one] | 9.81 nM | – | 8.24 nM
28 | COc1ccc(-c2ccc3ncc4c(c3c2)n(-c2cccnc2OC)c(=O)n4C)cn1 [Example 1.1, 1-(2-Methoxy-pyridin-3-yl)-8-(6-methoxy-pyridin-3-yl)-3-methyl-1,3-dihydro-imidazo[4,5-c]quinolin-2-one] | 65 nM | – | 24.5 nM
